According to PubChem BioAssay AID1963966 (Molecular Pharmacology Branch, DTP, NCI, 2024):
Values joined by “and” are separate entries in the source; they are usually repeats but may differ in a detail not shown here. Equal entries are not always repeated.

Test system: 935938-334-R-J1-PDC spheroids with HUVEC/MSC, viability
Assay: Anticancer human tumor 935938-334-R-J1-PDC patient-derived small intestine adenocarcinoma cell line growth inhibition [PI3K]
Details: for viability, T/C: stronger effect = lower value
Text: Combinatorial screen of targeted agents with the PI3K inhibitors inavolisib, alpelisib, duvelisib, and copanlisib in multi-cell type tumor spheroids
A high-throughput screen of multi-cell type tumor spheroids was designed to identify active combinations of targeted small molecules and PI3K pathway inhibitors. Complex spheroids include a stromal component modeled by human endothelial cells (HUVEC) and fibroblasts modeled by human mesenchymal stem cells (MSCs). The concentration ranges selected for each drug and investigational agent were based upon clinically achievable concentrations if the clinical Cmax of the agent was known.
Compounds. The drugs and investigational agents: inavolisib (NSC800729), alpelisib (NSC765974), duvelisib (NSC772469), copanlisib (NSC816437), ipatasertib (NSC767898), afuresertib (NSC778305), talazoparib (NSC767125), sapanisertib (NSC764658), selumetinib (NSC741078), tovorafenib (DAY101, NSC766906), vemurafenib (NSC761431), ravoxertinib (NSC781343), sotorasib (NSC818433), MRTX1133 (NSC 836407), abemaciclib (NSC 768073), palbociclib (NSC758247), venetoclax (NSC 766270), SY5609 (NSC837396), enzalutamide (NSC755605), and darolutamide (NSC825331), were obtained from the National Cancer Institute (NCI) Developmental Therapeutics Program Chemical Repository. The FDA-approved anticancer drug set is available from the NCI Developmental Therapeutics Program. […] The stock solutions were prepared in dimethyl sulfoxide (DMSO, Sigma-Aldrich, St. Louis, MO, cat. D2650) at 800-fold the tested concentration and stored at -70 degrees C prior to their use. All drugs and investigational agents were tested over a range starting from a high concentration at or near the clinical Cmax and decreasing in half-log increments. If the clinical Cmax for an agent had not been determined, the highest concentration tested was 10 microM.
Cell Culture. All cells were maintained in an incubator at 37 degrees C and 5% CO2 with 95% humidity. The PDC lines were cultured according to standard operating procedures established by the NCI PDMR (https://pdmr.cancer.gov/sops/default.htm). All PDCs were thawed and cultured in Matrigel-coated flasks prepared with a working solution of 1X Ham's F-12 nutrient mix, without supplementation (Invitrogen, Waltham, MA, cat. 11765054), 100 U/mL penicillin-streptomycin (Invitrogen, cat. 15140122), and 2.5% Matrigel (Corning Inc., Corning, NY, cat. 354248) for the first three passages. The 354836-022-R-J1-PDC, 475296-252-R-J1-PDC, and 997726-040-R-J2-PDC lines were cultured in 6A media, which includes advanced DMEM/F-12 (Thermo Fisher Scientific, cat. 12634028), 10 mM HEPES (Thermo Fisher Scientific, cat. 15630080), 1X GlutaMAX supplement (Thermo Fisher Scientific, cat. 35050061), 0.1 mg/mL primocin (InvivoGen, San Diego, CA, cat. ant-pm-2), 10% defined fetal bovine serum, heat inactivated (HyClone Laboratories Inc., Logan, UT, cat. SH30070.03HI), 50% L-WRN conditioned media (ATCC, cat. CRL-3276), 1.25 mM N-Acetyl-L-cysteine (Sigma-Aldrich, cat. A9165), 10 mM nicotinamide (Sigma-Aldrich, cat. N0636), 1X B-27 supplement (Thermo Fisher Scientific, cat. 17504044), 1X N-2 supplement (Thermo Fisher Scientific, cat. 17502048), and 10 microM Y-27632 dihydrochloride (Tocris Bioscience, Bristol, United Kingdom, cat. 1254). The 624824-186-R-J2-PDC line was cultured in 6C/Colon 1B media, which includes all 6A media components plus 50 ng/mL human EGF recombinant protein (Thermo Fisher Scientific, cat. PHG0311). […]

[1] = compound alone, run of 04/25/2023
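Also: compound exposure lasted seven days before viability was read.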
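For viability, T/C in this document: percent of vehicle DMSO treated spheroid viability so 100% = untreated.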

## C#Cc1c(F)ccc2cc(O)cc(-c3ncc4c(N5CC6CCC(C5)N6)nc(OCC56CCCN5CC(F)C6)nc4c3F)c12 (stereo not given)
Compound 3.16 µM
  viability, T/C: 52.5% [middle of 4 runs]
Compound 10 µM
  viability, T/C: 43.6% [middle of 4 runs]
Curve of compound
  IC50: 4.79 µM [middle of 4 runs]

## C=CC(=O)N1CCN(c2nc(=O)n(-c3c(C)ccnc3C(C)C)c3nc(-c4c(O)cccc4F)c(F)cc23)C(C)C1 (stereo not given)
Compound 0.1 µM
  viability, T/C: 95.8% [middle of 4 runs]
Compound 1 µM
  viability, T/C: 111% [middle of 4 runs]
Compound 10 µM
  viability, T/C: 92.7% [middle of 4 runs]
Curve of compound
  IC50: > 10 µM

## CC(=O)c1c(C)c2cnc(Nc3ccc(N4CCNCC4)cn3)nc2n(C2CCCC2)c1=O
Compound 0.001 µM
  viability, T/C: 93.6% [middle of 4 runs]
Compound 0.00316 µM
  viability, T/C: 89.5% [middle of 4 runs]
Compound 0.01 µM
  viability, T/C: 87.7% [middle of 4 runs]
Compound 0.0316 µM
  viability, T/C: 92.3% [middle of 4 runs]
Curve of compound
  IC50: > 0.1 µM and 0.0566 µM

## CC(C)NCC(C(=O)N1CCN(c2ncnc3c2C(C)CC3O)CC1)c1ccc(Cl)cc1 (stereo not given)
Compound 0.1 µM
  viability, T/C: 85.6% [middle of 4 runs]
Compound 0.316 µM
  viability, T/C: 86.1% [middle of 4 runs]
Compound 1 µM
  viability, T/C: 74.3% [middle of 4 runs]
Curve of compound
  IC50: > 10 µM and 1.87 µM and 5.86 µM

## CC(C)n1nc(-c2ccc3oc(N)nc3c2)c2c(N)ncnc21
Compound 0.000316 µM
  viability, T/C: 94.6% [middle of 4 runs]
Compound 0.001 µM
  viability, T/C: 105% [middle of 4 runs]
Compound 0.00316 µM
  viability, T/C: 106% [middle of 4 runs]
Compound 0.0316 µM
  viability, T/C: 79.1% [middle of 4 runs]
Compound 0.1 µM
  viability, T/C: 52.8% [middle of 4 runs]
Curve of compound
  IC50: > 0.1 µM and 0.0905 µM

## CC(Cn1ccc(-c2ccc(C#N)c(Cl)c2)n1)NC(=O)c1cc(C(C)O)[nH]n1 (stereo not given)
Compound 0.0316 µM
  viability, T/C: 90.6% [middle of 4 runs]
Compound 0.316 µM
  viability, T/C: 101% [middle of 4 runs]
Curve of compound
  IC50: > 10 µM

## CC(Nc1ccc2c(c1)OCCn1cc(N3C(=O)OCC3C(F)F)nc1-2)C(N)=O (stereo not given)
Compound 0.0316 µM
  viability, T/C: 91% [middle of 8 runs]
Compound alone, run of 04/24/2023
  IC50: > 1 µM

## CC(Nc1ncnc2nc[nH]c12)c1cc2cccc(Cl)c2c(=O)n1-c1ccccc1 (stereo not given)
Compound 0.0316 µM
  viability, T/C: 99% [middle of 8 runs]
Compound 10 µM
  viability, T/C: 80.4% [middle of 8 runs]
[1]
  IC50: > 10 µM

## CC1(C)CCC(CN2CCN(c3ccc(C(=O)NS(=O)(=O)c4ccc(NCC5CCOCC5)c([N+](=O)[O-])c4)c(Oc4cnc5[nH]ccc5c4)c3)CC2)=C(c2ccc(Cl)cc2)C1
Compound 0.0316 µM
  viability, T/C: 98.9% [middle of 4 runs]
Compound 0.1 µM
  viability, T/C: 88.2% [middle of 4 runs]
Compound 3.16 µM
  viability, T/C: 93.3% [middle of 4 runs]

## CC1(C)CCC(Nc2ncc(C(F)(F)F)c(-c3c[nH]c4c(P(C)(C)=O)c(C#N)ccc34)n2)CN1 (stereo not given)
Compound 0.0316 µM
  viability, T/C: 43.3% [middle of 4 runs]
Compound 0.1 µM
  viability, T/C: 39.1% [middle of 4 runs]
Compound 0.316 µM
  viability, T/C: 34.6% [middle of 4 runs]
Compound 1 µM
  viability, T/C: 38.5% and 38.1% and 35.8% (2×)
Compound 3.16 µM
  viability, T/C: 35.1% [middle of 4 runs]
Compound 10 µM
  viability, T/C: 7.76% [middle of 4 runs]
Curve of compound
  IC50: < 0.0316 µM

## CCCS(=O)(=O)Nc1ccc(F)c(C(=O)c2c[nH]c3ncc(-c4ccc(Cl)cc4)cc23)c1F
Compound 0.0316 µM
  viability, T/C: 98.8% [middle of 4 runs]
Compound 0.1 µM
  viability, T/C: 111% [middle of 4 runs]
Compound 0.316 µM
  viability, T/C: 108% [middle of 4 runs]
Compound 3.16 µM
  viability, T/C: 110% [middle of 4 runs]
Compound 10 µM
  viability, T/C: 31% [middle of 4 runs]
Curve of compound
  IC50: 7.38 µM [middle of 4 runs]

## CCN1CCN(Cc2ccc(Nc3ncc(F)c(-c4cc(F)c5nc(C)n(C(C)C)c5c4)n3)nc2)CC1
Compound 0.01 µM
  viability, T/C: 89.4% [middle of 4 runs]
Compound 0.316 µM
  viability, T/C: 49.4% [middle of 4 runs]
Curve of compound
  IC50: 269 nM [middle of 4 runs]

## CNC(=O)c1ccc(N2C(=S)N(c3ccc(C#N)c(C(F)(F)F)c3)C(=O)C2(C)C)cc1F
Compound 0.0316 µM
  viability, T/C: 95.8% [middle of 4 runs]
Compound 0.1 µM
  viability, T/C: 97.6% [middle of 4 runs]
Compound 0.316 µM
  viability, T/C: 96.2% [middle of 4 runs]
Compound 3.16 µM
  viability, T/C: 101% [middle of 4 runs]
Compound 10 µM
  viability, T/C: 97.4% [middle of 4 runs]
Curve of compound
  IC50: > 10 µM

## COc1c(OCCCN2CCOCC2)ccc2c3n(c(=NC(=O)c4cnc(N)nc4)nc12)CCN3
Compound 0.00316 µM
  viability, T/C: 87.7% [middle of 8 runs]
Compound 0.01 µM
  viability, T/C: 93.9% [middle of 8 runs]
Compound 0.0316 µM
  viability, T/C: 82.8% [middle of 8 runs]
Compound 0.1 µM
  viability, T/C: 52.5% [middle of 8 runs]
Compound 0.316 µM
  viability, T/C: 38.6% [middle of 8 runs]
Compound 1 µM
  viability, T/C: 39% [middle of 8 runs]
[1]
  IC50: 120 nM [middle of 8 runs]

## C[C@@H](NC(=O)c1ncnc(N)c1Cl)c1ncc(C(=O)Nc2cc(C(F)(F)F)c(Cl)cn2)s1
Compound 0.0316 µM
  viability, T/C: 109% [middle of 4 runs]
Compound 10 µM
  viability, T/C: 83.3% [middle of 4 runs]
Curve of compound
  IC50: > 10 µM

## Cc1nc(NC(=O)N2CCCC2C(N)=O)sc1-c1ccnc(C(C)(C)C(F)(F)F)c1 (stereo not given)
Compound 1 µM
  viability, T/C: 72.2% [middle of 8 runs]
Compound 10 µM
  viability, T/C: 48.2% [middle of 8 runs]

## Cn1cnc2c(F)c(Nc3ccc(Br)cc3Cl)c(C(=O)NOCCO)cc21
Compound 0.03 µM
  viability, T/C: 59% [middle of 4 runs]
Compound 0.0949 µM
  viability, T/C: 48.3% [middle of 4 runs]
Compound 0.3 µM
  viability, T/C: 33.4% [middle of 4 runs]
Compound 0.949 µM
  viability, T/C: 27.6% [middle of 4 runs]
Compound 3 µM
  viability, T/C: 20.4% [middle of 4 runs]
Curve of compound
  IC50: 55.5 nM [middle of 4 runs]

## Cn1ncc(Cl)c1-c1cc(C(=O)NC(CN)Cc2cccc(F)c2)sc1Cl (stereo not given)
Compound 0.1 µM
  viability, T/C: 84.4% [middle of 4 runs]
Compound 0.316 µM
  viability, T/C: 71.1% [middle of 4 runs]
Compound 1 µM
  viability, T/C: 60.5% [middle of 4 runs]
Compound 3.16 µM
  viability, T/C: 49.1% [middle of 4 runs]
Curve of compound
  IC50: > 10 µM and 1.85 µM

## Cn1nccc1Nc1nccc(-c2ccn(C(CO)c3ccc(Cl)c(F)c3)c(=O)c2)n1 (stereo not given)
Compound 0.0316 µM
  viability, T/C: 101% [middle of 4 runs]
Compound 0.316 µM
  viability, T/C: 68.3% [middle of 4 runs]
Compound 1 µM
  viability, T/C: 52.5% [middle of 4 runs]
Compound 3.16 µM
  viability, T/C: 43.4% [middle of 4 runs]
Compound 10 µM
  viability, T/C: 37% [middle of 4 runs]
Curve of compound
  IC50: 1.06 µM [middle of 4 runs]

## Cn1ncnc1[C@H]1c2n[nH]c(=O)c3cc(F)cc(c23)N[C@@H]1c1ccc(F)cc1
Compound 0.000316 µM
  viability, T/C: 91.7% [middle of 4 runs]
Compound 0.001 µM
  viability, T/C: 113% and 106% (2×) and 109%
Compound 0.01 µM
  viability, T/C: 101% [middle of 4 runs]
Compound 0.0316 µM
  viability, T/C: 94.7% [middle of 4 runs]
Compound 0.1 µM
  viability, T/C: 97.3% [middle of 4 runs]
Curve of compound
  IC50: > 0.1 µM
